What all share (test): biochemical binding or enzymatic assay
In one test the target is T1, GSK3B (Homo sapiens, UniProt P49841).
T1 construct: purchased DiscoveRx KINOMEscan
Conditions: Novartis. How it is done: (§1) Finally, the selectivity profile of i-CDK9 toward other non-CDK kinases was also assessed using the KINOMEscan platform. […] Except for CLK4, for which no suitable assay was available, the rest of the kinases plus a selected group of others were re-examined for the concentration-dependent effect of i-CDK9 in either functional kinase assays or binding assays. […] Indeed, it has recently been reported that DYRK1A acts as a Pol II CTD Kinase at its target gene promoters ([Di Vona et al., 2015]).

The target in a further test is T2, IGF1R (Homo sapiens, UniProt P08069).
T2 construct: purchased DiscoveRx KINOMEscan
Conditions: Novartis. How it is done: as §1

The target in another test is T3, ERK2 (Homo sapiens, UniProt P28482).
T3 construct: purchased DiscoveRx KINOMEscan
Conditions: Novartis. How it is done:
as §1

A further test concerns the target T4, ROCK2 (Homo sapiens, UniProt O75116).
T4 construct: purchased DiscoveRx KINOMEscan
Conditions: Novartis. How it is done: as §1

The next test concerns the target IRAK4 (Homo sapiens, UniProt Q9NWZ3). Conditions: Novartis. How it is done:
as §1

For another test, the target named is T5, YES (Homo sapiens, UniProt P07947).
T5 construct: purchased DiscoveRx KINOMEscan
Conditions: Novartis. How it is done:
as §1

Another test has as its target T6, PDPK1 (Homo sapiens, UniProt O15530).
T6 construct: purchased DiscoveRx KINOMEscan
T6 sequence (O15530 1-556): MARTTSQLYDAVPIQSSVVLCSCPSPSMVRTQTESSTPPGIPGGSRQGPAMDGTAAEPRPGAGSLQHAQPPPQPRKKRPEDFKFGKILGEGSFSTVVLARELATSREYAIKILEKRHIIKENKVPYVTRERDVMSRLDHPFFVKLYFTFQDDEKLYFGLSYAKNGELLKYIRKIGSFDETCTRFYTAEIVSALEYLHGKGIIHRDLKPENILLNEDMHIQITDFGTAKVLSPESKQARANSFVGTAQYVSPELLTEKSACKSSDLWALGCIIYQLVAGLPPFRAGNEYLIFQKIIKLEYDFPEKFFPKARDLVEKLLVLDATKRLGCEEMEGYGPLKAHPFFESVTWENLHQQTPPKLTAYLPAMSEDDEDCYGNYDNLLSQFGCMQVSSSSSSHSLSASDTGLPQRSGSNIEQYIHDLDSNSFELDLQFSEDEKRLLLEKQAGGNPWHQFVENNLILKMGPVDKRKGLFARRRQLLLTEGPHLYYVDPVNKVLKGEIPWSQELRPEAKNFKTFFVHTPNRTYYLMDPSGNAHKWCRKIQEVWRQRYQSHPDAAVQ
Conditions: Novartis. How it is done:
as §1

A further test has as its target T7, MAPKAPK2 (Homo sapiens, UniProt P49137).
T7 construct: purchased DiscoveRx KINOMEscan
Conditions: Novartis. How it is done: as §1

A further test addresses T8, MKNK2 (Homo sapiens, UniProt Q9HBH9).
T8 construct: purchased DiscoveRx KINOMEscan
Conditions: Novartis. How it is done:
as §1

The target of another test is T9, PCTK1 (Homo sapiens, UniProt Q00536).
T9 construct: purchased DiscoveRx KINOMEscan
Conditions: Ambit. How it is done:
as §1

Another test deals with T10, AKT1 (Homo sapiens, UniProt P31749).
T10 construct: purchased DiscoveRx KINOMEscan
Conditions: Novartis. How it is done: as §1

A further test has as its target T11, EPHA4 (Homo sapiens, UniProt P54764).
T11 construct: purchased DiscoveRx KINOMEscan
Conditions: Novartis. How it is done:
as §1

For another test, the target named is T12, KIT (Homo sapiens, UniProt P10721).
T12 construct: purchased DiscoveRx KINOMEscan
Conditions: Novartis. How it is done:
as §1

In the next test the target is T13, ERK1 (Homo sapiens, UniProt P27361).
T13 construct: purchased DiscoveRx KINOMEscan
Conditions: Novartis. How it is done: as §1

The target of a further test is T14, ZAP70 (Homo sapiens, UniProt P43403).
T14 construct: purchased DiscoveRx KINOMEscan
T14 sequence (P43403 1-619): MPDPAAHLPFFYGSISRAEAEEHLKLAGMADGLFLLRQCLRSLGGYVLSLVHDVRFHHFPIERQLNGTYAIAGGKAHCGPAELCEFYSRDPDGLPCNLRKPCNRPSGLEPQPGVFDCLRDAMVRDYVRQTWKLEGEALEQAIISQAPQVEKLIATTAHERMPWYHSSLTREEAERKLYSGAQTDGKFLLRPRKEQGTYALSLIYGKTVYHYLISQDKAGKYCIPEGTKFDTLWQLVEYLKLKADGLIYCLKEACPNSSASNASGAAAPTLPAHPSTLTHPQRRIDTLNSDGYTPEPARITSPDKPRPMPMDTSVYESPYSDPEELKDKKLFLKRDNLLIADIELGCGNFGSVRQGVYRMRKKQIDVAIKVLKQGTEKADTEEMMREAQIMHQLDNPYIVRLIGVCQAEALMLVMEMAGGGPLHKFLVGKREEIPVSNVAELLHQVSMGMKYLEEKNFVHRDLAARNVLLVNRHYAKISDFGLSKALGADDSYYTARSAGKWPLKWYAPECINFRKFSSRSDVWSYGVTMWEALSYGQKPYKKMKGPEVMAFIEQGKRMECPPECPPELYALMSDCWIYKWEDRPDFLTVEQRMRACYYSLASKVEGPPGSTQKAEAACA
How it is done:
as §1

A further test addresses T15, MKNK1 (Homo sapiens, UniProt Q9BUB5).
T15 construct: purchased DiscoveRx KINOMEscan
Conditions: Novartis. How it is done:
as §1

The target in the next test is T16, CAMK2D (Homo sapiens, UniProt Q13557).
T16 construct: purchased DiscoveRx KINOMEscan
Conditions: Novartis. How it is done:
as §1

The target of another test is T17, RET (Homo sapiens, UniProt P07949).
T17 construct: purchased DiscoveRx KINOMEscan
Conditions: Novartis. How it is done: as §1

The next test addresses T18, FGFR2 (Homo sapiens, UniProt P21802).
T18 construct: purchased DiscoveRx KINOMEscan
Conditions: Novartis. How it is done:
as §1

Molecules are shown by their SMILES.

T1 sequence (P49841 whole entry): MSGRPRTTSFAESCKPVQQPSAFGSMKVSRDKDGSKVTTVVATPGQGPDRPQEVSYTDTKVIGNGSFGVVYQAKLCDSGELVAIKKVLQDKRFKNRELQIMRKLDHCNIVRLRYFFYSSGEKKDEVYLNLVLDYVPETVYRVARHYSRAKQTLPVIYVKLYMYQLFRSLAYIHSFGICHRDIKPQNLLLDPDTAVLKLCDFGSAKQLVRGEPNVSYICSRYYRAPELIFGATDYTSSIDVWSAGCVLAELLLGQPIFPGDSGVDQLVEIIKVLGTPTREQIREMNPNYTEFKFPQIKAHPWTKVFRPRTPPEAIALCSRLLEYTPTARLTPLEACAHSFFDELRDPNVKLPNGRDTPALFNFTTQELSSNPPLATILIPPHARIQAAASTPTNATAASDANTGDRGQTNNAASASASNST
T8 sequence (Q9HBH9 whole entry): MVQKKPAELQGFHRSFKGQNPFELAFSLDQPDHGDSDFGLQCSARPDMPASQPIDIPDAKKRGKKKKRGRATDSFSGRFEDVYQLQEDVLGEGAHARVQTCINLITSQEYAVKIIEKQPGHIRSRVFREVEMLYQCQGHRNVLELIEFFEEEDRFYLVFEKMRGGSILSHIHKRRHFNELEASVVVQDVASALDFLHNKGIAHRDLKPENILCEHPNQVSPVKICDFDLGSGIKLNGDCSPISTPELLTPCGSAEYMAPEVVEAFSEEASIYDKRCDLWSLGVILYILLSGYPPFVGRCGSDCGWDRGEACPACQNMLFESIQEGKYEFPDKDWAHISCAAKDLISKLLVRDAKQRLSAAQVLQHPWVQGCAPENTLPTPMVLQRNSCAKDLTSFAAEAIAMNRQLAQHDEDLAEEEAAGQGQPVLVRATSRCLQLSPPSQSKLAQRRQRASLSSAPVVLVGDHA
T4 sequence (O75116 whole entry): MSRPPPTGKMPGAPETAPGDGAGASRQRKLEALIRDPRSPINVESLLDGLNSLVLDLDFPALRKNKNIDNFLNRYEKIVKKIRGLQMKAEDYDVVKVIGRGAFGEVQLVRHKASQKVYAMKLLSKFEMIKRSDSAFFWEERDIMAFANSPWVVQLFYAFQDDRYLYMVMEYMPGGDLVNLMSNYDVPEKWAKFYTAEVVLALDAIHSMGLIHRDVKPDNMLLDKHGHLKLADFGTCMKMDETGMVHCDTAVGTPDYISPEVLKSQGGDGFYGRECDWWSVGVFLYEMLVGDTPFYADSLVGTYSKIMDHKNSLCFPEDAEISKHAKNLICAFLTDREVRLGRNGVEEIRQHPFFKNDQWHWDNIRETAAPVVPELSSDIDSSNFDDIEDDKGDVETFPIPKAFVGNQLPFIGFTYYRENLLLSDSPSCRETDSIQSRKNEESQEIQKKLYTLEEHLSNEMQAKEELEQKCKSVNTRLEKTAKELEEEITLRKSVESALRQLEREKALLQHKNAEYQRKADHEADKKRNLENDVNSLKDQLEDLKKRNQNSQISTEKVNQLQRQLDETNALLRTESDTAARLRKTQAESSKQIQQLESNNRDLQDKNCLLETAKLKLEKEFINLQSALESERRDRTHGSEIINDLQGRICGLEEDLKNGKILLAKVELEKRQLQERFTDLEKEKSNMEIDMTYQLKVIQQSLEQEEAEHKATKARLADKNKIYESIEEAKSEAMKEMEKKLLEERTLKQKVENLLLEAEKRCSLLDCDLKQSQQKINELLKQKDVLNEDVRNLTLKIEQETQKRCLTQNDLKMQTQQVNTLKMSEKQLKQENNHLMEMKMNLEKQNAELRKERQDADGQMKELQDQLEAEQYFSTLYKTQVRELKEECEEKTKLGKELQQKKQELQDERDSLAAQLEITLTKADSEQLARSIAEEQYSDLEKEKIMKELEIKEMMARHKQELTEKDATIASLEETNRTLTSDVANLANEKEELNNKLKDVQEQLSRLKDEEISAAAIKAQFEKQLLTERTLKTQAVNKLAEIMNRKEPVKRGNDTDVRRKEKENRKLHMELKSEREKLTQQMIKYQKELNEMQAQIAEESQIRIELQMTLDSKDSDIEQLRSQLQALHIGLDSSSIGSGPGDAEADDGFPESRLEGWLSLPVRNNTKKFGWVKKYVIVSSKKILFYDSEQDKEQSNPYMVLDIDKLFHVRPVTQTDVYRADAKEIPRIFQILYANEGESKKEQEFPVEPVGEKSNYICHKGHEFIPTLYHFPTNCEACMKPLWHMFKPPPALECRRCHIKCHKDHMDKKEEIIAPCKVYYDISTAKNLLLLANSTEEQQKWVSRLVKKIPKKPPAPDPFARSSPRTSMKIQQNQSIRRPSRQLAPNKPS
T13 sequence (P27361 whole entry): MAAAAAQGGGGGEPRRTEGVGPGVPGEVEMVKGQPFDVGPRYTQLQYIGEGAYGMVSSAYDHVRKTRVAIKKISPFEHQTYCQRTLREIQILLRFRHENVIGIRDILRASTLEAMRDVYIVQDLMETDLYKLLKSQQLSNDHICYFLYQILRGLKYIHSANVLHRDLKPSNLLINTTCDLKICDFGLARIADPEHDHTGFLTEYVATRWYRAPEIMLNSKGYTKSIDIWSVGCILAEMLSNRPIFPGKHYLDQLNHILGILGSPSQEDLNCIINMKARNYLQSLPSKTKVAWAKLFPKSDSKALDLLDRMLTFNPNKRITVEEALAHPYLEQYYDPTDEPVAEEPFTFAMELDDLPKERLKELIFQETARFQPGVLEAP
T2 sequence (P08069 31-1367): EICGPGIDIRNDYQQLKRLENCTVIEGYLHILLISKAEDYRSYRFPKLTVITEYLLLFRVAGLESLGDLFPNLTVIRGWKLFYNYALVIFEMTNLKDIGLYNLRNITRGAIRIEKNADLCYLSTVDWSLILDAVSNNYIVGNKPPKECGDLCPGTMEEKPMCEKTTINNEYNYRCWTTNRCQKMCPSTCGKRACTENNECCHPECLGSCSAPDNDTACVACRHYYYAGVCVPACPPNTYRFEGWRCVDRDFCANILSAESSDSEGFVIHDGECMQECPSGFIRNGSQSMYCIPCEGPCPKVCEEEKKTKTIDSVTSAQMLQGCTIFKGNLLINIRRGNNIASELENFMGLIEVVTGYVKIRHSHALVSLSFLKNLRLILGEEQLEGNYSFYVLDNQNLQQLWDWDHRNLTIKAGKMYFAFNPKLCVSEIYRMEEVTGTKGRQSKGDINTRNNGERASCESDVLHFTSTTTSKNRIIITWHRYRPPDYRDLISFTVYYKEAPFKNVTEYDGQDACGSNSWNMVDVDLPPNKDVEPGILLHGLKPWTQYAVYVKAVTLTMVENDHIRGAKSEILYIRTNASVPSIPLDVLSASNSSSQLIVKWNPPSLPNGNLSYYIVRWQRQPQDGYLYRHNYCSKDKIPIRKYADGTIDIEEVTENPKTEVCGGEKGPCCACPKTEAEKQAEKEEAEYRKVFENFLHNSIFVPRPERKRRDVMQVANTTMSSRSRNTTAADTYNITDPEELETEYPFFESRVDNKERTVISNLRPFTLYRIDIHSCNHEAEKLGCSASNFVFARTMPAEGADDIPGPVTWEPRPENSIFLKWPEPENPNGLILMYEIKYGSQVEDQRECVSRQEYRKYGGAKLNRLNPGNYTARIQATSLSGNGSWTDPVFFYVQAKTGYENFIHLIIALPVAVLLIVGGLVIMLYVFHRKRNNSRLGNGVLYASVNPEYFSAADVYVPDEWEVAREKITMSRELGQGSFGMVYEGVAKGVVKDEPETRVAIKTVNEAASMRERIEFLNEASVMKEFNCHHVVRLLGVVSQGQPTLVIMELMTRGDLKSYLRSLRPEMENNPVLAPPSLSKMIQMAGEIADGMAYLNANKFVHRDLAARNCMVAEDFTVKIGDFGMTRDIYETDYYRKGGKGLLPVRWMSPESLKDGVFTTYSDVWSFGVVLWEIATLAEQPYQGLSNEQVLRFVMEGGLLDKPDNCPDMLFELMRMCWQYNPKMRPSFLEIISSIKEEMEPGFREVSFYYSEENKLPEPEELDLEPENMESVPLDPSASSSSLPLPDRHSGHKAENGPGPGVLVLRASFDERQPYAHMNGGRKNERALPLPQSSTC
T9 sequence (Q00536 whole entry): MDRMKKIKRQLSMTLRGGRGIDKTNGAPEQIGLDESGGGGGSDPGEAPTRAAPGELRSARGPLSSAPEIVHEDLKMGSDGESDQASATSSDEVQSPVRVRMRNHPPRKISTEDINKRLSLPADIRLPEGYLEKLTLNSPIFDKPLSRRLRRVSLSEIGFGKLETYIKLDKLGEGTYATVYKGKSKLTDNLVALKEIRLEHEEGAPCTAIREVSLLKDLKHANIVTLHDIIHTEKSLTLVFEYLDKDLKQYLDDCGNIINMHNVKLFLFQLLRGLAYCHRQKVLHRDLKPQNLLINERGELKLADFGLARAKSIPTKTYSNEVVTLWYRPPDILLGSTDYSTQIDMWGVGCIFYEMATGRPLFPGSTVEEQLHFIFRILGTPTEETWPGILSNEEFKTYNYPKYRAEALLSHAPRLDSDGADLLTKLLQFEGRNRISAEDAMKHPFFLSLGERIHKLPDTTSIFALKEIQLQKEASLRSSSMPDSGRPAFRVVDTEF
T3 sequence (P28482 whole entry): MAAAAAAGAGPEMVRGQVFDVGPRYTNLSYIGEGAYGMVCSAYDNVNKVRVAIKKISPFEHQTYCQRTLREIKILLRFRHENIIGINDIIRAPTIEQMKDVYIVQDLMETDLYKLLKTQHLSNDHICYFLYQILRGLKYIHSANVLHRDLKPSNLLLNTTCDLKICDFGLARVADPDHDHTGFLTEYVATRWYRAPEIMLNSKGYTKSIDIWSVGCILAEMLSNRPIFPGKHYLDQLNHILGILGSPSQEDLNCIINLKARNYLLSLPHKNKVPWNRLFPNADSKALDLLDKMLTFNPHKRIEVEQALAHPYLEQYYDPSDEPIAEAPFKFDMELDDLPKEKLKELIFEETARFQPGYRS

Regarding `N[C@H]1CC[C@H](Nc2cc(-c3cccc(NCc4cccc(F)c4)n3)c(Cl)cn2)CC1` [i-CDK9, N2′-(trans-4-aminocyclohexyl)-5′-chloro-N6-(3-fluorobenzyl)-2,4′-bipyridine-2′,6-diamine], the half-inhibitory concentration (IC50) is 1.6 µM at GSK3B; > 10 µM on IGF1R; > 10 µM at ERK2; > 10 µM at ROCK2; > 10 µM at IRAK4; > 10 µM on YES. The IC50 on PDPK1 was > 10 µM; at MAPKAPK2, > 10 µM; on MKNK2, > 10 µM; at PCTK1 it was > 0.14 µM; at AKT1, > 10 µM; on EPHA4 it was > 10 µM. Besides, the IC50 at KIT was > 10 µM; at ERK1 it was > 10 µM; on ZAP70, > 10 µM; at MKNK1 it was > 10 µM; at CAMK2D, 4 µM; on RET it was > 10 µM. Besides, the IC50 on FGFR2 is > 10 µM.

The values above are taken from article PMC4490784, “Compensatory induction of MYC expression by sustained CDK9 inhibition via a BRD4-dependent mechanism” (eLife, 2015).
